According to US20160317419A1, “METHOD OF IMPROVING SKIN HEALTH AND COMPOSITIONS THEREFOR” (The Procter & Gamble Company, priority 2015, published 2016):

What was measured:
Format in all cases: cell-based
[1] = tested on: human dermal fibroblasts obtained from the BJ cell line; assay: ECAR Method: glycolytic ATP production rate of fibroblasts exposed to hydrogen peroxide; settings: for % Change from Control: vs media control
Description: Glycolytic ATP production by fibroblasts exposed to hydrogen peroxide was determined using an XF Extracellular Flux brand analyzer available from Seahorse Bioscience, Massachusetts The analyzer measured extracellular acidification rate (“ECAR”) in real time, which correlates to glycolytic ATP production. The cells used in this test were frozen human dermal fibroblasts obtained from the BJ cell line commercially available from ATCC, Bethesda, Md. […] The fibroblasts were plated at 8×10^4 cells per well in gelatin-coated plates 24 hours prior to testing. Each well included 100 μL of the culture medium described above. The gelatin-coated plates are prepared by coating each well in a multi-well plate (e.g., 24-well or 96-well plates available from Seahorse Biosciences, Massachusetts) with 0.2% gelatin (protein solution available from Sigma) diluted with phosphate buffered saline (“PBS”). The gelatin is diluted 1:10 to 0.2% in sterile PBS at 37° C., and then 50 uL of the diluted gelatin solution is added to each well and incubated at room temperature for 30 minutes. Excess liquid is removed by aspiration without touching the wells and the surface is allowed to dry for at least 2 hours. Hydrogen peroxide is a well-known ROS, and is used in this example as a source of oxidative stress on the fibroblasts being tested. A stressor solution of hydrogen peroxide was prepared at 10× working concentration in the fibroblast test medium described above. The test agents (i.e., nicotinamide riboside, niacinamide, and nicotinamide riboside+niacinamide in combination) were prepared at 10× the final working concentration in the fibroblast test medium to provide test agent solutions. The stressor solution and the test agent solutions were warmed to 37° C. and pH adjusted to 7.4. A fibroblast test medium was made from Dulbecco's Modified Eagle Medium (available from Seahorse Bioscience), 25 mM glucose and 1 mM pyruvate. The fibroblast test medium was warmed to 37° C. and the pH adjusted to 7.4. The cells were grown and plated at 37° C. and 5% CO2 air. The culture medium in the wells was replaced by the fibroblast test medium 1 hour prior to taking measurements. Each well contained approximately 8×10^4 cells and 600 μL of fibroblast test medium (i.e., DMEM, 25 mM glucose and 1 mM pyruvate) at 37° C. and pH 7.4. The plates containing the samples to be tested were loaded into the analyzer and equilibrated according to the manufacturer's instructions. The test agent solutions and stressor solution were each placed in an automated injection port of the XF cartridge plate. The analyzer was programmed to sequentially run a two minute mix cycle, a two minute wait cycle, and a 3 minute measurement cycle continuously for at least 88 minutes. Data points were collected and recorded by the analyzer. The analyzer was allowed to complete three cycles prior to the addition of a stressor solution or test agent solution to provide a basal ECAR value. After the third cycle was completed (i.e., about 21 minutes after detection began), the test solution and/or stressor solution was added to the wells by the analyzer from the appropriate injection port. A stressor solution was added to the well in sufficient amount to provide 1.5 mM hydrogen peroxide in the well. The test agent solution was added in sufficient amount to provide 250 μM or 500 μM niacinamide or nicotinamide riboside in the well.

[2] = tested on: keratinocytes; assay: ATP Assay: ATP depletion caused by hydrogen peroxide in keratinocytes (Cell Titer-Glo); settings: 1 hour
Description: The keratinocytes were cultured in T150 flasks using EPILIFE brand culture medium (calcium free and phenol red free, supplemented with penicillin/streptomycin and keratinocytes growth supplement, Invitrogen cat# […]500). The keratinocytes were then plated in 24 well plates with 40,000 cells/well and 1 ml of culture medium. After 24 hours, the keratinocytes were treated with 500 uM hydrogen peroxide alone, 400 uM niacinamide, 400 uM nicotinamide riboside or a combination of niacinamide and nicotinamide riboside (400 uM each) for 1 hour. Untreated keratinocytes were used as a control (i.e., keratinocytes in culture medium). The keratinocytes were washed in PBS and ATP levels were measured using the Cell Titer-Glo® brand ATP assay available from Promega, Madison, Wis. as catalogue # G7571/2/3 according to the manufacturer's instructions. Luminescence was measured on a SPECTRAMAX M3 brand microplate reader (Molecular Devices, Sunnyvale, Calif.). The net luminescence for a test sample is calculated by subtracting the observed luminescence value for the control from the observed luminescence value for the test sample.

[3] = tested on: antioxidant response element (ARE); assay: ARE Assay (ARE-32 luciferase reporter cell line); settings: 24 hrs, control subtracted
Description: ARE activation was quantitated using the ARE-32 reporter cell line available from CXR-Biosciences as described in the ARE Assay below. ARE-32 is a stable MCF7 cell line containing pGL8x-ARE (8 copies of the rat GST ARE linked to the luciferase gene) and pCDNA3.1, which contains the neomycin selectable marker. Selection was performed in the presence of G418 and resistant clones were isolated. Clones were screened for induction of luciferase in response to tBHQ. The ARE-32 cells are maintained routinely in the DMEM (phenol red free) containing: 10% FBS, 50 units/ml penicillin & 50 μg/ml streptomycin, 0.8 mg/ml G418. Cells are subcultured every 3-4 days. Cells were frozen in medium that contains 90% FBS and 10% DMSO. In a 96 well-plate, seed 1×10^4 cells/well in 100 μl DMEM containing 50 units/ml penicillin, 50 μg/ml streptomycin, 0.8 mg/ml G418 and 10% FBS. Next, incubate the cells at 37° C. in a 5% CO2 incubator for 24 hrs, and then replace the medium with 100 μl fresh media. Treat with test compounds at 2 ul per well, positive control was 25 uM TBHQ. (10 mM tBHQ of stock solution freshly prepared in DMSO). Add 100 ul of media after treatment for a final assay volume of 200 uL. Incubate the cells at 37° C. in the CO2 incubator for another 24 hrs. Assay for luciferase activity with a STEADY-GLO brand assay system according to the manufacturer's instructions. A general schematic for how the ARE reporter assay operates to identify agents that promote transcription off the ARE is described in U.S. Publication No. 2011/0262570. The results of the test are illustrated in Table 1 and FIG. 3. The ARE activity for […] (“NR”), niacinamide (“N”) and the combination of nicotinamide riboside and niacinamide is reported as net luminescence in Table 1. Net luminescence for a test sample is determined by subtracting the luminescence value of the control from the luminescence value of the test sample. The calculated net luminescence for NR+N is the sum of the individual measured luminescence values for NR and N.

[4] = 500 μM test agent with 1.5 mM hydrogen peroxide
[5] = 400 uM (each) with 500 uM hydrogen peroxide

| Compound | Observed ECAR ([1]; 1.5 mM hydrogen peroxide alone) [mpH/min] | % Change from Control ([1]; 1.5 mM hydrogen peroxide alone) [%] | % depletion vs. control (ATP) ([2]; 500 uM hydrogen peroxide alone) [%] | Net Luminescence AVG ([2]; 500 uM hydrogen peroxide alone) | % depletion vs. control (ATP) ([2]; 500 uM hydrogen peroxide alone, listed as H2O2) [%] | Net Luminescence ([3]; NR 0.011 w/v %, N 0.0125 w/v %) | Net Luminescence ([3]; NR 0.021 w/v %, N 0.025 w/v %) | Net Luminescence ([3]; NR 0.042 w/v %, N 0.05 w/v %) | Net Luminescence ([3]; NR 0.0842 w/v %, N 0.1 w/v %) | Observed ECAR [1, 4] [mpH/min] | % Change from Control [1, 4] [%] | % depletion vs. control (ATP) [2, 5] [%] | Net Luminescence AVG [2, 5] | % depletion vs. control (ATP) ([2]; 400 uM (each) with 500 uM hydrogen peroxide, listed as niacinamide) | % depletion vs. control (ATP) ([2]; 400 uM (each) with 500 uM hydrogen peroxide, listed as nicotinamide riboside) [%] |
| --- | --- | --- | --- | --- | --- | --- | --- | --- | --- | --- | --- | --- | --- | --- | --- |
| OO [Hydrogen Peroxide, hydrogen peroxide, reference compound] | 8.96 | −70.0 | ~97.5 | 1556 | 97.5 |  |  |  |  |  |  |  |  |  |  |
| NC(=O)c1cccnc1 [N, niacinamide] |  |  |  |  |  | 13 | 26 | 71 | 75 | 15.35 | −48.6 | 89.7 | 6539 | about 89.7% |  |
| nicotinamide riboside [NR] |  |  |  |  |  | 205 | 594 | 1845 | 5176 | 14.31 | −52.1 | 96.9 | 1971.5 |  | ~96.9 |
